Source: ChEMBL document CHEMBL3991601, “The target landscape of clinical kinase drugs” (Science, 2017)
The source made the active and inactive calls. Cut-off read from the data, not from the text of the source, for most assays here: actives have a measured Kd and inactives only a lower limit.

Tests used:
Aurora kinase B = Aurora kinase B (Homo sapiens, UniProt Q96GD4)
[1] = target: Bone morphogenetic protein receptor type-1A (Homo sapiens, UniProt P36894)
[2] = target: Serine/threonine-protein kinase MRCK beta (Homo sapiens, UniProt Q9Y5S2)
[3] = target: Casein kinase I isoform alpha (Homo sapiens, UniProt P48729)
[4] = target: Casein kinase I isoform gamma-1 (Homo sapiens, UniProt Q9HCP0)
[5] = target: Casein kinase II subunit alpha' (Homo sapiens, UniProt P19784)
Deoxycytidine kinase = Deoxycytidine kinase (Homo sapiens, UniProt P27707)
Scaffold protein ILK = target: T1, Scaffold protein ILK (Homo sapiens, UniProt Q13418)
T1 sequence (Q13418 whole entry): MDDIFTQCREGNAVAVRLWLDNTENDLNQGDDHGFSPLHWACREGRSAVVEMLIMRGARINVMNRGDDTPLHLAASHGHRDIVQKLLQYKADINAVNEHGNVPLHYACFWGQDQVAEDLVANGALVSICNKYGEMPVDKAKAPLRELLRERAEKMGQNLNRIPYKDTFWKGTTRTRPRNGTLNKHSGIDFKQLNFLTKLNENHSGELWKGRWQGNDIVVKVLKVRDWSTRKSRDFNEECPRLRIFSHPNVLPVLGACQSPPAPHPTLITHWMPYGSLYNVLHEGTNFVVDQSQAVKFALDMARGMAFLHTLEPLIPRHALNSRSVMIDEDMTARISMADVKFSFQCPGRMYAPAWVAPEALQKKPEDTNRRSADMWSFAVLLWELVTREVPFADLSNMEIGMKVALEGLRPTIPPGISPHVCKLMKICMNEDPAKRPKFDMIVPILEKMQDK

[6] = target: T2, Serine/threonine-protein kinase Nek9 (Homo sapiens, UniProt Q8TD19)
T2 sequence (Q8TD19 whole entry): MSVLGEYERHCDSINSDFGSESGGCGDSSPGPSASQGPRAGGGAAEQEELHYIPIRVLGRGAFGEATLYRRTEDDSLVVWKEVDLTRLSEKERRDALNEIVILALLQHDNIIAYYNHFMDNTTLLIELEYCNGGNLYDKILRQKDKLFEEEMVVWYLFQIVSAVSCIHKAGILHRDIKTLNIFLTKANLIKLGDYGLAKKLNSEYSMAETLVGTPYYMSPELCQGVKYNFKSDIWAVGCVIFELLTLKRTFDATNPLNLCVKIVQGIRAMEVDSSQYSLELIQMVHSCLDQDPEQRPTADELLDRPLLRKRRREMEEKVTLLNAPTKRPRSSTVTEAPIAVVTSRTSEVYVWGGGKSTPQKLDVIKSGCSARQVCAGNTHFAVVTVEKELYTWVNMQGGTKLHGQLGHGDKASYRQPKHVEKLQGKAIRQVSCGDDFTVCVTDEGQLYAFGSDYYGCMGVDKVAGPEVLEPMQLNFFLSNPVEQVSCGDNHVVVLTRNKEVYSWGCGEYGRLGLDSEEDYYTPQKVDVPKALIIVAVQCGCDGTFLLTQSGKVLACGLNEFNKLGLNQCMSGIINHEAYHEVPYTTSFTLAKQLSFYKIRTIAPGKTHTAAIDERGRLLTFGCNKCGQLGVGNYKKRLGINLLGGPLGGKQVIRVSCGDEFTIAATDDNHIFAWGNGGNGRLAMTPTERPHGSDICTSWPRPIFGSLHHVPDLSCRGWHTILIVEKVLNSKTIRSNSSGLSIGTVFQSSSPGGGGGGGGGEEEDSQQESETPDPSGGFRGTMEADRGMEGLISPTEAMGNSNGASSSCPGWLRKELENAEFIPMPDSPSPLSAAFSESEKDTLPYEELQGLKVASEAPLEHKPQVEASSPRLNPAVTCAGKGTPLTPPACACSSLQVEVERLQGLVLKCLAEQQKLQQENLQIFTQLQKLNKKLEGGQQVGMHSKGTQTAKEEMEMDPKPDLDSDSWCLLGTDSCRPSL

[7] = target: Serine/threonine-protein kinase N1 (Homo sapiens, UniProt Q16512)
[8] = target: Tyrosine-protein kinase SYK (Homo sapiens, UniProt P43405)
TGF-beta receptor type-1 = target: T3, TGF-beta receptor type-1 (Homo sapiens, UniProt P36897)
T3 sequence (P36897 whole entry): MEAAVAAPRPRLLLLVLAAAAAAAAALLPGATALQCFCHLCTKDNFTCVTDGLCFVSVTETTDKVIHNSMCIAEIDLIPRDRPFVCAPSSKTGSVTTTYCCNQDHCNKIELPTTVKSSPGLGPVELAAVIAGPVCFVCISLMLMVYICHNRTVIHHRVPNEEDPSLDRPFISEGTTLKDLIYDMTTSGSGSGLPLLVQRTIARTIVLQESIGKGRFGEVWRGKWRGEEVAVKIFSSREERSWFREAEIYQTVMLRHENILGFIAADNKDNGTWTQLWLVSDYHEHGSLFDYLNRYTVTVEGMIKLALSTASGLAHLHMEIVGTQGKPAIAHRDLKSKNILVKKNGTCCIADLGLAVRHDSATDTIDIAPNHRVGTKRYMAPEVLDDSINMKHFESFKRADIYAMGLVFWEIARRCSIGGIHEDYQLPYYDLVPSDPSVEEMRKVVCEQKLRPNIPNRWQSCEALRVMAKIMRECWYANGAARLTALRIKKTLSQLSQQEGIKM
Note: in the data inactive means no Kd found up to 30 µM.

Sequence of Serine/threonine-protein kinase N1 (Q16512 whole entry): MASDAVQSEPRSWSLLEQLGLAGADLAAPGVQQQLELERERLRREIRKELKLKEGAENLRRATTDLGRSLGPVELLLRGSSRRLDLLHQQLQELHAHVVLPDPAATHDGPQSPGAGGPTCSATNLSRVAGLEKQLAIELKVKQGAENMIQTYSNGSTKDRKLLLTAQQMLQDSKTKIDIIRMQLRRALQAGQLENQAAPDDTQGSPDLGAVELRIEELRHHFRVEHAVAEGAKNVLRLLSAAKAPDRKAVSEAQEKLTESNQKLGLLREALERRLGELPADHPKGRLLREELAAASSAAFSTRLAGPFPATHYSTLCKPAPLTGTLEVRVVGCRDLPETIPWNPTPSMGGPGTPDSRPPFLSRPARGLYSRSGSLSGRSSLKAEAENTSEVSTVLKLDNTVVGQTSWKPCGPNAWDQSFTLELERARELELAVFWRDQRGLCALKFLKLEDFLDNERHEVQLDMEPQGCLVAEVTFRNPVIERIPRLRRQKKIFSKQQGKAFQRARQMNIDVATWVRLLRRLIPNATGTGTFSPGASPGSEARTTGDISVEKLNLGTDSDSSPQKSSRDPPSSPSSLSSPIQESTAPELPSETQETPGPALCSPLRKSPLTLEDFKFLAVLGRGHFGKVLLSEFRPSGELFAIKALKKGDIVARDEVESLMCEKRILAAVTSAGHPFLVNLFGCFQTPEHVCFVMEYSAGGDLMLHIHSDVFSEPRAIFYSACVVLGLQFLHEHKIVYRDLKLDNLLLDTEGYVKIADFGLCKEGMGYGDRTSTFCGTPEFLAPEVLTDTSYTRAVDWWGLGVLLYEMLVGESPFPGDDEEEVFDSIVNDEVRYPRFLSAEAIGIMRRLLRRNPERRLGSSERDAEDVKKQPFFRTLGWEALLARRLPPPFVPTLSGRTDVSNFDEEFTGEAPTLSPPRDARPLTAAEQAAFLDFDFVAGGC
Sequence of Casein kinase I isoform gamma-1 (Q9HCP0 whole entry, canonical isoform): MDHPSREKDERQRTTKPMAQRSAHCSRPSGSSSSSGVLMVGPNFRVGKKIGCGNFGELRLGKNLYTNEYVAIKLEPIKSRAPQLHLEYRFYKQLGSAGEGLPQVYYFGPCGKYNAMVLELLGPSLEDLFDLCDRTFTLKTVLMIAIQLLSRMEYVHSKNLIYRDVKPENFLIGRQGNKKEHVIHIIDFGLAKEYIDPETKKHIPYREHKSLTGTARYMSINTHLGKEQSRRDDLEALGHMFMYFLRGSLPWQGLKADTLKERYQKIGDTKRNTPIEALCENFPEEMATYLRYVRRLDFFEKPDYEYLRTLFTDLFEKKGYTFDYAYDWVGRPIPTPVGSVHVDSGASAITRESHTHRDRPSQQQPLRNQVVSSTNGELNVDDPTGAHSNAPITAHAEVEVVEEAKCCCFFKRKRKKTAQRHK
Sequence of Serine/threonine-protein kinase MRCK beta (Q9Y5S2 whole entry, canonical isoform): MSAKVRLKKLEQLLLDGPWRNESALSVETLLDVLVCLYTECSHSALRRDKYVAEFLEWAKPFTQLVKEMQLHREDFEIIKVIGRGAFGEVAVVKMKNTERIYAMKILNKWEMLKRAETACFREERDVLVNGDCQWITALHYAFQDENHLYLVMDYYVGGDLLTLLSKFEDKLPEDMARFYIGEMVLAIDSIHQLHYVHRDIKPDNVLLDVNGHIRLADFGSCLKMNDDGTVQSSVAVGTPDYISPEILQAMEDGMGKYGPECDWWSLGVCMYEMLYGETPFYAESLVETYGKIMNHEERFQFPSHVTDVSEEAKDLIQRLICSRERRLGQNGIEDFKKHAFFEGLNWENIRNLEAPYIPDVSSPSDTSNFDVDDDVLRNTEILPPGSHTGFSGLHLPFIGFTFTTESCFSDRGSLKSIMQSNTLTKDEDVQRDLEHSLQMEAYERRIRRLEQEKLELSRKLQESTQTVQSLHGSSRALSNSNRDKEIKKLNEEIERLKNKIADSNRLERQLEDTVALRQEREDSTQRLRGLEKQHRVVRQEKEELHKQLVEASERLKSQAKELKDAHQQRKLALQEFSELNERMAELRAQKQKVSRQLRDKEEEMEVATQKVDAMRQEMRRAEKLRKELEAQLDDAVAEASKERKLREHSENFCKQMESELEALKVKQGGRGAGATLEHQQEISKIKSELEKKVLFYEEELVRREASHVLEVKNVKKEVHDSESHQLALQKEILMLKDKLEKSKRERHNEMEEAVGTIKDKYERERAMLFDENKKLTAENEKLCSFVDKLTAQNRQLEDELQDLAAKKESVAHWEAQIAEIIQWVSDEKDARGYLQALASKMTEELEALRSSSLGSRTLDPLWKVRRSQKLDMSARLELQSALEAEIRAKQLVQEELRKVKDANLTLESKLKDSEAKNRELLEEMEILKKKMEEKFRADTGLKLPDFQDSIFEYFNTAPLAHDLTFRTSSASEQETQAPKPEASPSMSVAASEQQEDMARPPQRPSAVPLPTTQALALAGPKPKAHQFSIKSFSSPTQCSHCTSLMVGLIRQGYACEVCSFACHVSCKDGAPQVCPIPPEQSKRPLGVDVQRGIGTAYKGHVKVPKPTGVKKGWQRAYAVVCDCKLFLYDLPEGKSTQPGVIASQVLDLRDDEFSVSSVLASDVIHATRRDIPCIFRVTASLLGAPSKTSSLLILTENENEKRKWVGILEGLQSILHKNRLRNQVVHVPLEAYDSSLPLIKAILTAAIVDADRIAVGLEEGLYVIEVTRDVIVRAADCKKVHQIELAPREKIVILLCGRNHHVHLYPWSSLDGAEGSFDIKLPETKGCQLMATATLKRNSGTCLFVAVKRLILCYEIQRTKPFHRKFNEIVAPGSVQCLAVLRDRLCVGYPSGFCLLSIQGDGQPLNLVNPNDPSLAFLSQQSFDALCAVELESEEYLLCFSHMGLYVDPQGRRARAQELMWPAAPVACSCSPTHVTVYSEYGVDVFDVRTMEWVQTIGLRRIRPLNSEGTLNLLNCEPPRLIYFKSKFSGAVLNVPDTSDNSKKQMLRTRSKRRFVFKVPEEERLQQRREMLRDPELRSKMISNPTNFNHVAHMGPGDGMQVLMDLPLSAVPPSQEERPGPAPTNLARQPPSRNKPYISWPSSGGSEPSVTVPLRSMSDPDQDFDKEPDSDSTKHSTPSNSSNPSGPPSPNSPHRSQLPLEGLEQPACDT
Sequence of Casein kinase I isoform alpha (P48729 whole entry, canonical isoform): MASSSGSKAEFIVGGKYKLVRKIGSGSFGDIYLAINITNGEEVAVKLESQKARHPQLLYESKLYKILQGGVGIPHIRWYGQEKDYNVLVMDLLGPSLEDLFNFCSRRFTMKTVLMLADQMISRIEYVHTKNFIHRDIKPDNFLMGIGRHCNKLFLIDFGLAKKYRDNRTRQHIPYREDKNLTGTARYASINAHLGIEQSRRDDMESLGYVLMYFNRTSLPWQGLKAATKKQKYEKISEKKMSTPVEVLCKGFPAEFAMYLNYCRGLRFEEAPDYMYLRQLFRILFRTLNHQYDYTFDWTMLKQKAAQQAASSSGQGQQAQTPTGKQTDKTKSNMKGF
Sequence of Casein kinase II subunit alpha' (P19784 whole entry): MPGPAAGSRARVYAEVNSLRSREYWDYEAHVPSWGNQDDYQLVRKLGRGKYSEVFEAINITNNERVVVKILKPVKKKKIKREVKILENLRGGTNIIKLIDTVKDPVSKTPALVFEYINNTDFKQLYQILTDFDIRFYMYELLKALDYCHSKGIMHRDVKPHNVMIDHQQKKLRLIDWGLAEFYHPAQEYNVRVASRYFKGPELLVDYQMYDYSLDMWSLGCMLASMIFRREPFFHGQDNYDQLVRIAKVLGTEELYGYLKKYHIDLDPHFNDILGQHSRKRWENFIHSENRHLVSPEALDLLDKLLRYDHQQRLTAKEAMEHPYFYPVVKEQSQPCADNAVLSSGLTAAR
Sequence of Deoxycytidine kinase (P27707 whole entry): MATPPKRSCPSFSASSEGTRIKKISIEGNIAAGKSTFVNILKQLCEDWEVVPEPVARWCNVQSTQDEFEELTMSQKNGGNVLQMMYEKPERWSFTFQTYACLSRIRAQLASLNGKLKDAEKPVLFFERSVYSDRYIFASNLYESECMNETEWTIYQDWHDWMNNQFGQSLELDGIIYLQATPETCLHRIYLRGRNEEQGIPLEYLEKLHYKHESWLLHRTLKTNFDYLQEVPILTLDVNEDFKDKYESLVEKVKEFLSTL
Sequence of Bone morphogenetic protein receptor type-1A (P36894 whole entry): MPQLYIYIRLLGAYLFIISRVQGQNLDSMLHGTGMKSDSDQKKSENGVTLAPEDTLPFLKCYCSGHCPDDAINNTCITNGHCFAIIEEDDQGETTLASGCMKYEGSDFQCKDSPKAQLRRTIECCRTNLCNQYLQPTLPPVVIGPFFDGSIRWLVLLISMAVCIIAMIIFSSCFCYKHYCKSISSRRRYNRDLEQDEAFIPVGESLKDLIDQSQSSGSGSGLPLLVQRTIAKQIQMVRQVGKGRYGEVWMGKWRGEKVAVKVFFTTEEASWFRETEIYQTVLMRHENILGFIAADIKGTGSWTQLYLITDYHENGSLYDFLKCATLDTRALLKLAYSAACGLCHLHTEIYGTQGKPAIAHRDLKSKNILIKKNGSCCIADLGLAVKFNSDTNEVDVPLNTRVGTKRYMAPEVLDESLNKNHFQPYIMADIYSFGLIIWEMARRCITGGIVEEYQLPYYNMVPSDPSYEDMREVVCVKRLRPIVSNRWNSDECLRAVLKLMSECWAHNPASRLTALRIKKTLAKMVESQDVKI
Sequence of Aurora kinase B (Q96GD4 whole entry): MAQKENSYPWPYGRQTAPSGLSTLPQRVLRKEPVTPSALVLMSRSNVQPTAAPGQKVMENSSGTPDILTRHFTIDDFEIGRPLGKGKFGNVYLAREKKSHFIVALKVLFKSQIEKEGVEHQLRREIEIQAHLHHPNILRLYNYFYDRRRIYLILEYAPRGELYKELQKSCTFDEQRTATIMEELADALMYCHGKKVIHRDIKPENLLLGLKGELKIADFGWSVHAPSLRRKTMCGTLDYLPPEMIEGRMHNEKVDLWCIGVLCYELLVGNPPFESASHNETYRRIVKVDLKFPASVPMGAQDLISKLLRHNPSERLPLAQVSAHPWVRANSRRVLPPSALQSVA

Row | SMILES | Kd (Aurora kinase B) | Kd [1] | Kd [2] | Kd [3] | Kd [4] | Kd [5] | Kd (Deoxycytidine kinase) | Kd (Scaffold protein ILK) | Kd [7] | Kd [8] | Kd (TGF-beta receptor type-1) | Kd [6]
1 | O=c1[nH]c([C@@H]2CCCN2)nc2c1oc1ccc(Cl)cc12 | > 30 µM (inactive) | > 30 µM (inactive) | > 30 µM (inactive) | > 30 µM (inactive) | > 30 µM (inactive) | 0.022 µM (active) | > 30 µM (inactive) | > 30 µM (inactive) | > 30 µM (inactive) | > 30 µM (inactive) | > 30 µM (inactive) | > 30 µM (inactive)
2 | Cn1cc(-c2[nH]c3cc(NC(=O)[C@H](N)C4CCCCC4)cc4c3c2C=NNC4=O)cn1 | 0.12 µM (active) | 0.814 µM (active) | > 30 µM (inactive) | > 30 µM (inactive) | > 30 µM (inactive) | 14.8 µM (active) | > 30 µM (inactive) | > 30 µM (inactive) | 0.119 µM (active) | > 30 µM (inactive) | > 30 µM (inactive) | > 30 µM (inactive)
3 | Cc1c(NC(=O)OC[C@@H]2COCCN2)cn2ncnc(Nc3ccc4c(cnn4Cc4cccc(F)c4)c3)c12 [AC-480] | > 30 µM (inactive) | > 30 µM (inactive) | > 30 µM (inactive) | > 30 µM (inactive) | > 30 µM (inactive) | > 30 µM (inactive) | > 30 µM (inactive) | > 30 µM (inactive) | > 30 µM (inactive) | > 30 µM (inactive) | > 30 µM (inactive) | > 30 µM (inactive)
4 | COc1ccc2c(OCc3nnc4ccc(-c5ccccc5)nn34)ccnc2c1 [AMG-208] | > 30 µM (inactive) | > 30 µM (inactive) | > 30 µM (inactive) | > 30 µM (inactive) | > 30 µM (inactive) | > 30 µM (inactive) | > 30 µM (inactive) | > 30 µM (inactive) | > 30 µM (inactive) | > 30 µM (inactive) | > 30 µM (inactive) | > 30 µM (inactive)
5 | CCOc1ccn(-c2ccc(F)cc2)c(=O)c1C(=O)Nc1ccc(Oc2ccnc(N)c2Cl)c(F)c1 [BMS-777607] | 1.07 µM (active) | > 30 µM (inactive) | > 30 µM (inactive) | > 30 µM (inactive) | > 30 µM (inactive) | > 30 µM (inactive) | > 30 µM (inactive) |  | > 30 µM (inactive) | > 30 µM (inactive) | > 30 µM (inactive) | > 30 µM (inactive)
6 | CCc1nc(C(N)=O)c(Nc2ccc(N3CCC(N4CCN(C)CC4)CC3)c(OC)c2)nc1NC1CCOCC1 [GILTERITINIB] | > 30 µM (inactive) |  | > 30 µM (inactive) | > 30 µM (inactive) | > 30 µM (inactive) | 0.96 µM (active) | > 30 µM (inactive) | > 30 µM (inactive) | > 30 µM (inactive) | 4.04 µM (active) | > 30 µM (inactive) | > 30 µM (inactive)
7 | O=S(=O)(c1cccc2c(O)nccc12)N1CCCNCC1 [HYDROXYFASUDIL] | > 30 µM (inactive) | > 30 µM (inactive) | > 30 µM (inactive) | > 30 µM (inactive) | > 30 µM (inactive) | > 30 µM (inactive) | > 30 µM (inactive) | > 30 µM (inactive) | 2.92 µM (active) | > 30 µM (inactive) |  | > 30 µM (inactive)
8 | COc1cc(F)c(F)c(Nc2ccc(I)cc2F)c1NS(=O)(=O)C1(C[C@H](O)CO)CC1 [REFAMETINIB] | > 30 µM (inactive) | > 30 µM (inactive) | > 30 µM (inactive) | > 30 µM (inactive) | > 30 µM (inactive) | > 30 µM (inactive) | > 30 µM (inactive) |  | > 30 µM (inactive) | > 30 µM (inactive) | > 30 µM (inactive) | > 30 µM (inactive)
9 | CN1CCN(c2nc(C3=C(c4c[nH]c5ccccc45)C(=O)NC3=O)c3ccccc3n2)CC1 [SOTRASTAURIN] | > 30 µM (inactive) | > 30 µM (inactive) | > 30 µM (inactive) | > 30 µM (inactive) | > 30 µM (inactive) | > 30 µM (inactive) | > 30 µM (inactive) |  | 2.95 µM | > 30 µM (inactive) | > 30 µM (inactive) | > 30 µM (inactive)

More lines, main results first:

Row | Kd (Aurora kinase B) | Kd [1] | Kd [2] | Kd [3] | Kd [4] | Kd [5] | Kd (Deoxycytidine kinase) | Kd (Scaffold protein ILK) | Kd [7] | Kd [8] | Kd (TGF-beta receptor type-1) | SMILES | Kd [6]
10 | > 30 µM (inactive) | > 30 µM (inactive) | > 30 µM (inactive) | > 30 µM (inactive) | > 30 µM (inactive) | 0.019 µM (active) | > 30 µM (inactive) |  | > 30 µM (inactive) | > 30 µM (inactive) | > 30 µM (inactive) | CCN1CCN(Cc2ccc(Nc3ncc(F)c(-c4cc(F)c5nc(C)n(C(C)C)c5c4)n3)nc2)CC1 [ABEMACICLIB] | > 30 µM (inactive)
11 | > 30 µM (inactive) | > 30 µM (inactive) | > 30 µM (inactive) | > 30 µM (inactive) | > 30 µM (inactive) | > 30 µM (inactive) | > 30 µM (inactive) | > 30 µM (inactive) | > 30 µM (inactive) | > 30 µM (inactive) | > 30 µM (inactive) | CCc1cc2c(cc1N1CCC(N3CCOCC3)CC1)C(C)(C)c1[nH]c3cc(C#N)ccc3c1C2=O [ALECTINIB] | > 30 µM (inactive)
12 | > 30 µM (inactive) | > 30 µM (inactive) | > 30 µM (inactive) | 1.37 µM (active) | > 30 µM (inactive) |  | > 30 µM (inactive) | > 30 µM (inactive) | 1.34 µM (active) | > 30 µM (inactive) | 1.23 µM (active) | COc1cccc(Nc2ncnn3ccc(CN4CC[C@@H](N)[C@H](O)C4)c23)c1 [BMS-690514] | > 30 µM (inactive)
13 | > 30 µM (inactive) | > 30 µM (inactive) | > 30 µM (inactive) | > 30 µM (inactive) | > 30 µM (inactive) | > 30 µM (inactive) | > 30 µM (inactive) |  | > 30 µM (inactive) | > 30 µM (inactive) | > 30 µM (inactive) | C=CC(=O)Nc1cccc(Nc2nc(Nc3ccc(N4CCN(C(C)=O)CC4)cc3OC)ncc2C(F)(F)F)c1 [ROCILETINIB] | > 30 µM (inactive)
14 | > 30 µM (inactive) | > 30 µM (inactive) | > 30 µM (inactive) | > 30 µM (inactive) | > 30 µM (inactive) | > 30 µM (inactive) | > 30 µM (inactive) |  | > 30 µM (inactive) | > 30 µM (inactive) | > 30 µM (inactive) | O[C@H]1CC[C@H](Nc2ncc3nc(Nc4c(F)cc(F)cc4F)n([C@H]4CCOC4)c3n2)CC1 [TANZISERTIB] | > 30 µM (inactive)
